These results are taken from patent US5284829A, “Synthetic tetrapeptides for the prevention of schistosome parasite infection” (priority 1991, dated 1994).

The test system of the assay is cercariae of Schistosoma mansoni (Puerto Rican strain). The format is cell-based. The settings on record: 50 micromolar. On the procedure:
A modification of the assay developed by Clegg and Smithers (Clegg & Smithers, 1972. Int. J. Parasitol. 2, 79-98.) was used. Two Plexiglass chambers were manufactured which could be screwed together to hold a 25×25 mm section of skin at the interface of the two chambers. Human skin was obtained from autopsy (6-12 hours following death) or from amputation specimens received at the Department of Surgical Pathology, UCSF. The chamber below the skin was filled with tissue culture medium (DME H16) prewarmed to 37° C. After the skin was clamped, the upper chamber was filled with water containing 9000 cercariae of Schistosoma mansoni (Puerto Rican strain). Cercariae will follow a thermal gradient, and they are stimulated by the lipid on the surface of skin to invade (Stirewalt, 1974. Adv. Parasitol. 12, 115-180). After one hour exposure to cercariae the skin was removed, fixed in 10% phosphate buffered formalin for 24 h, and sectioned at 2 mm intervals. Following dehydration and routine paraffin embedding, 5μ sections were cut by microtome and stained with hemotoxylin and eosin. The number of cercariae which had invaded epidermis or dermis was counted in each section. Percent inhibition of invasion was calculated as [formula] All assays were done in triplicate and standard deviation of the mean calculated. […]

Take `COC(=O)CCC(=O)N[C@@H](C)C(=O)N[C@@H](C)C(=O)N1CCC[C@H]1C(=O)N[C@@H](Cc1ccccc1)B(O)O` [MeO-Suc-Ala-Ala-Pro-(L)boro-Phe-OH]: the “cercariae inhibited from invading skin” value turned out to be 50%.
